Source: ChEMBL document CHEMBL5523671, “ω-(5-Phenyl-2H-tetrazol-2-yl)alkyl-substituted glycine amides and related compounds as inhibitors of the amine oxidase vascular adhesion protein-1 (VAP-1)” (Bioorg Med Chem, 2024)

Tests used:
[1] = molecular target: T1, VAP-1 (amine oxidase [copper-containing] 3) (Bos taurus, UniProt Q9TTK6); assay: Stability of compound assessed as bovine plasma VAP-1 mediated drug degradation by measuring parent compound remaining at 10 uM incubated for 30 mins by HPLC-MS analysis; assay type: ADME, cell-free; details: cattle, bovine plasma VAP-1 (amine oxidase [copper-containing] 3), read-out: Stability
T1 sequence (Q9TTK6 whole entry): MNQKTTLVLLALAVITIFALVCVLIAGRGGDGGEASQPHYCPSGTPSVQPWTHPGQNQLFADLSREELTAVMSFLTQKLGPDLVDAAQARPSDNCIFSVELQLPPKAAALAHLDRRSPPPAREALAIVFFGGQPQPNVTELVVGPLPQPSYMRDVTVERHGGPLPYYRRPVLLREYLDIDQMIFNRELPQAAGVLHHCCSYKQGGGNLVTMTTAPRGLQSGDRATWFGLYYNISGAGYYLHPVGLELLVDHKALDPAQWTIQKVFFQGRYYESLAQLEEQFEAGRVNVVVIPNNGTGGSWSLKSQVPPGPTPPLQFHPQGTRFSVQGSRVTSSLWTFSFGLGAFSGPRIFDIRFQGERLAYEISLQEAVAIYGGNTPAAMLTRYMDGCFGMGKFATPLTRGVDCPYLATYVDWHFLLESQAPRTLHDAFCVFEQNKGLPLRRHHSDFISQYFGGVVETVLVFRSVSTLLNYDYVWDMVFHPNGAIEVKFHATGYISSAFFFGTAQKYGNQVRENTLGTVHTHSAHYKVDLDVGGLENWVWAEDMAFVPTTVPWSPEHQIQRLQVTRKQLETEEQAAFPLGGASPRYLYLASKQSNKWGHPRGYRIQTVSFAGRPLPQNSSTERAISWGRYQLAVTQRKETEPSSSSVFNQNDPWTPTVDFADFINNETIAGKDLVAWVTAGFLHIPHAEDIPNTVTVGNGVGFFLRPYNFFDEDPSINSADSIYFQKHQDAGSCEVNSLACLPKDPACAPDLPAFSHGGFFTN

[2] = molecular target: T1, VAP-1 (amine oxidase [copper-containing] 3); assay: Stability of compound assessed as bovine plasma VAP-1 mediated drug degradation by measuring parent compound remaining at 10 uM incubated for 60 mins by HPLC-MS analysis; assay type: ADME, cell-free; details: cattle, bovine plasma VAP-1 (amine oxidase [copper-containing] 3), read-out: Stability
[3] = molecular target: T2, Amine oxidase [copper-containing] 3 (Bos taurus, UniProt Q9TTK6); assay: Stability of compound assessed as bovine plasma VAP-1 mediated drug degradation by measuring formation of aldehyde metabolite at 1 to 10 uM incubated for 60 to 120 mins by HPLC-MS analysis; assay type: ADME, cell-free; details: cattle, dose lower 1 µM, time lower 60 min, dose upper 10 µM, time upper 120 min
T2 sequence (Q9TTK6 whole entry): T1 sequence (Q9TTK6 whole entry)

[4] = molecular target: Amine oxidase [copper-containing] 1 (diamine oxidase, Sus scrofa) (UniProt Q9TRC7); assay: Inhibition of porcine kidney DAO using 6-(5-phenyltetrazol-2-yl)hexan-1-amine as substrate at 10 uM preincubated with enzyme for 15 mins followed by substrate addition measured after 30 mins by UV-HPLC analysis relative to control; details: time 45.0 min
[5] = molecular target: T1, VAP-1 (amine oxidase [copper-containing] 3); assay: Stability of compound assessed as bovine plasma VAP-1 mediated drug degradation by measuring parent compound remaining at 10 uM incubated for 15 mins by HPLC-MS analysis; assay type: ADME, cell-free; details: cattle, bovine plasma VAP-1 (amine oxidase [copper-containing] 3), read-out: Stability
[6] = molecular target: T1, VAP-1 (amine oxidase [copper-containing] 3); assay: Stability of compound assessed as bovine plasma VAP-1 mediated drug degradation by measuring parent compound remaining at 10 uM incubated for 120 mins by HPLC-MS analysis; assay type: ADME, cell-free; details: cattle, bovine plasma VAP-1 (amine oxidase [copper-containing] 3), read-out: Stability
[7] = molecular target: T3, Amine oxidase [copper-containing] 3 (Homo sapiens, UniProt Q16853); assay: Inhibition of human plasma VAP-1 using 6-(5-Pheny1-2H-tetrazol-2-yl)hexan-1-amine as substrate preincubated with enzyme for 15 mins followed by substrate addition measured after 120 mins by UV-HPLC analysis; assay type: cell-free
T3 sequence (Q16853 whole entry): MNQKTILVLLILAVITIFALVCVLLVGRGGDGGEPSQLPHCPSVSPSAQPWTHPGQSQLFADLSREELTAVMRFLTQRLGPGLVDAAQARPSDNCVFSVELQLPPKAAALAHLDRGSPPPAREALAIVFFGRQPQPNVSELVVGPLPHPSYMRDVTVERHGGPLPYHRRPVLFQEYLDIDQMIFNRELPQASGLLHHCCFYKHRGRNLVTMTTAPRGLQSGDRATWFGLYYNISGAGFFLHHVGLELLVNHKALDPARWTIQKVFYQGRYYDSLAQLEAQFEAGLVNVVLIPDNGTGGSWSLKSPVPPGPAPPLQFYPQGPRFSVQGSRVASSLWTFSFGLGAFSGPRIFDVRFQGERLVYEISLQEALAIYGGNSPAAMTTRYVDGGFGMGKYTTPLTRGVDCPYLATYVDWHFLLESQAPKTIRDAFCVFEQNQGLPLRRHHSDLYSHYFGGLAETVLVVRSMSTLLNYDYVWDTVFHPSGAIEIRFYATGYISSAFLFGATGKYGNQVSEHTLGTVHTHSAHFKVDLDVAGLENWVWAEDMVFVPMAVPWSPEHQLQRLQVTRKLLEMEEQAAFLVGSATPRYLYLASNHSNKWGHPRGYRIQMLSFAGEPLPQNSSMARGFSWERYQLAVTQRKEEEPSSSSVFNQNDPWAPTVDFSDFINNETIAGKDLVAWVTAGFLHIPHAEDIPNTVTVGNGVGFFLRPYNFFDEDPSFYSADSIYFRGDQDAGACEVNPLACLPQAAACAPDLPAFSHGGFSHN

[8] = molecular target: T4, Amine oxidase [copper-containing] 3 (Homo sapiens) (UniProt Q16853); assay: Inhibition of human plasma VAP-1 using 6-(5-Pheny1-2H-tetrazol-2-yl)hexan-1-amine as substrate at 10 uM preincubated with enzyme for 15 mins followed by substrate addition measured after 120 mins by UV-HPLC analysis relative to control; assay type: cell-free; details: time 135.0 min
T4 sequence (whole entry): T3 sequence (Q16853 whole entry)

[9] = Selectivity index, ratio of IC50 for human plasma VAP-1 to IC50 for bovine plasma VAP-1
[10] = molecular target: T4, Amine oxidase [copper-containing] 3 (Homo sapiens); assay: Inhibition of human plasma VAP-1 using 6-(5-Pheny1-2H-tetrazol-2-yl)hexan-1-amine as substrate at 100 uM preincubated with enzyme for 15 mins followed by substrate addition measured after 120 mins by UV-HPLC analysis relative to control; assay type: cell-free; details: time 135.0 min

Amine oxidase [copper-containing] 1 (diamine oxidase, Sus scrofa), sequence (Q9TRC7 whole entry, looked up): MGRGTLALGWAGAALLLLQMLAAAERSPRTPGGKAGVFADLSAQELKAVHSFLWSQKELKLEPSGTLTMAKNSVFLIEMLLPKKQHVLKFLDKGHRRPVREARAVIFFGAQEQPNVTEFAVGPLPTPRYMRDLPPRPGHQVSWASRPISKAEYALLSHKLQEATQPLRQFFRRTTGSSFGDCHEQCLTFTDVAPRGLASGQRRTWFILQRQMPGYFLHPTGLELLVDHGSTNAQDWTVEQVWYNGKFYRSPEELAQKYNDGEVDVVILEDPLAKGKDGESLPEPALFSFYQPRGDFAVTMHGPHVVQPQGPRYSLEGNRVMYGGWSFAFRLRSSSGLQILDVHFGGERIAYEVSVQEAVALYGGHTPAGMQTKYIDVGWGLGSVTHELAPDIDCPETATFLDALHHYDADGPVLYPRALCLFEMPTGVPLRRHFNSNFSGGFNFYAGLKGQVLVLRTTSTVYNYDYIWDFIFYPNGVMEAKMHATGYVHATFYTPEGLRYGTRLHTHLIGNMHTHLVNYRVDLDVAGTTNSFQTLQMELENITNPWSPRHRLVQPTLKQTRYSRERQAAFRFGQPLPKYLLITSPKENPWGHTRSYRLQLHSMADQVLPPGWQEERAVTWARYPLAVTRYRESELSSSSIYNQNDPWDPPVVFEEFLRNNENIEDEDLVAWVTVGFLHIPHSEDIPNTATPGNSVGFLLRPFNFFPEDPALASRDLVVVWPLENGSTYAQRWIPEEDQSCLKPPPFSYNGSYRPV

remaining at 0.5 h, 10 µM [1] [%] | remaining at 1 h, 10 µM [2] [%] | Stability [3] | inhibition [4] [%] | remaining at 0.25 h, 10 µM [5] [%] | remaining at 2 h, 10 µM [6] [%] | IC50 [7] [µM] | inhibition [8] [%] | Ratio IC50 [9] | inhibition [10] [%] | SMILES
85 | 66 | Unstable | 39 | 92 | 23 | – | – | – | – | NCC(=O)NCc1cccc(-c2ccccc2)c1
79 | – | Unstable | – | 85 | 29 | 32 | 17 | 2 | – | N#Cc1ccc(-c2nnn(CCCCCCNC(=O)CN)n2)cc1
58 | – | Unstable | – | 80 | < 5 | > 100 | – | – | 23 | NCC(=O)NCCCCCCn1nnc(-c2ccccc2)n1
